SMILES strings stand for the structures. Numbered stars: 1 amine (or outer) side, 2 acyl side, 3 side chain; on linkers, the order of the positions; unused ones are H or OH. Square brackets hold non-standard residues; d marks the D form. Peptide text beside a SMILES is read from it. * marks the point of attachment. Hexanoyl(5S-NH,4S-OH,6-Ph) = O=C(CC[C@H](O)[C@H](Cc1ccccc1)N[*:1])[*:2]; X3 = O=C([C@H](Cc1ccccc1)C[C@H](O)[C@H](Cc1ccccc1)N[*:1])[*:2]; X4 = CC(C)C[C@H](C[C@H](O)[C@H](Cc1ccccc1)N[*:1])C(=O)[*:2]; X1 = CCC[C@H](C[C@H](O)[C@H](Cc1ccccc1)N[*:1])C(=O)[*:2]; X2 = C[C@H](C[C@H](O)[C@H](Cc1ccccc1)N[*:1])C(=O)[*:2]; Cbz = O=C(OCc1ccccc1)*

This passage reports Ki results from ChEMBL document CHEMBL1137231, “Efficient evaluation of binding free energy using continuum electrostatics solvation” (J Med Chem, 2004).

Experiment [1] deals with Human immunodeficiency virus type 1 protease (Human immunodeficiency virus 1, UniProt Q72874). As to the kind of experiment: Binding affinity towards human immunodeficiency virus type 1 protease determined using continuum electrostatics solvation.
For a further experiment, the target named is Beta-secretase 1 (Homo sapiens, UniProt P56817). As to the kind of experiment: Binding affinity towards Beta-secretase determined using continuum electrostatics solvation.
Chain of Beta-secretase 1 (P56817 whole entry): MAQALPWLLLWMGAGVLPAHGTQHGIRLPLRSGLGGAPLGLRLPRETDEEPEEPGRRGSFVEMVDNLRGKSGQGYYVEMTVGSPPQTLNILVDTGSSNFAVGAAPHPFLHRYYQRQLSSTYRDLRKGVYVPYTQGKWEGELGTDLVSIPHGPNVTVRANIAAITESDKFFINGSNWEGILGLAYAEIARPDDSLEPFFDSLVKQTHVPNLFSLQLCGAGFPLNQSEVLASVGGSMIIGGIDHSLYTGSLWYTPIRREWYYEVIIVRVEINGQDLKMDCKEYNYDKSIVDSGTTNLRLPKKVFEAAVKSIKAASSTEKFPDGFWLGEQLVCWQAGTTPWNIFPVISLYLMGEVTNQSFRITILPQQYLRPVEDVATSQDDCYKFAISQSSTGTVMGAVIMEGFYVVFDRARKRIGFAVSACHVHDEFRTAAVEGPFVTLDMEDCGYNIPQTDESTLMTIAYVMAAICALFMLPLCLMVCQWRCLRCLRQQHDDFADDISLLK

`CC(NC(=O)OCc1ccccc1)C(=O)NC(Cc1ccccc1)[C@@H](O)CCC(=O)NC(C(N)=O)C(C)C` (some centres undefined): affinity in experiment [1] was put at a Ki of 2500 nM.

As to `COC(=O)C(NC(=O)C(NC(=O)[C@H](CC(C)C)C[C@H](O)C(Cc1ccccc1)NC(=O)C(C)NC(=O)OCc1ccccc1)C(C)C)C(C)C` (some centres undefined), in experiment [1], the Ki – broadly, the dissociation constant of the complex between target and ligand, obtained from inhibition or displacement – stood at 0.9 nM.

The compound `CCC[C@H](C[C@H](O)C(Cc1ccccc1)NC(=O)OC(C)(C)C)C(=O)NC(C(N)=O)C(C)C` (some centres undefined) returned a Ki in experiment [1] of 50 nM.

`CC(NC(=O)OCc1ccccc1)C(=O)NC(Cc1ccccc1)[C@@H](O)C[C@@H](C)C(=O)NC(C(N)=O)C(C)C` (some centres undefined): the Ki in experiment [1] is 50 nM.

As for `CC(NC(=O)OCc1ccccc1)C(=O)NC(Cc1ccccc1)[C@@H](O)C[C@@H](Cc1ccccc1)C(=O)NC(C(N)=O)C(C)C` (some centres undefined), the affinity in experiment [1] corresponds to a Ki of 0.6 nM.

`CC(C)C[C@H](NC(=O)[C@@H](NC(=O)OC(C)(C)C)C(N)=O)C(O)CC(C)C(=O)N[C@@H](C)C(=O)NCc1ccccc1` (some centres undefined): the inhibition constant Ki on Beta-secretase 1 was determined as 22400 nM.

At Beta-secretase 1, `CSCCC(NC(=O)[C@@H](NC(=O)OC(C)(C)C)C(C)C)C(=O)N[C@@H](CC(C)C)C(O)CC(C)C(=O)N[C@H](C(=O)NCc1ccccc1)C(C)C` (some centres undefined) yielded an inhibitory constant (Ki) of 2.5 nM.

`COC(=O)C(NC(=O)C(NC(=O)[C@H](Cc1ccccc1)C[C@H](O)C(Cc1ccccc1)NC(=O)C(C)NC(=O)OCc1ccccc1)C(C)C)C(C)C` (some centres undefined) had a Ki in experiment [1] of 0.6 nM.

For the compound `COC(=O)C(NC(=O)C(NC(=O)[C@H](C)C[C@H](O)C(Cc1ccccc1)NC(=O)C(C)NC(=O)OCc1ccccc1)C(C)C)C(C)C` (some centres undefined), the Ki in experiment [1] was 1.6 nM.

Consider `CC(C)C[C@H](C[C@H](O)C(Cc1ccccc1)NC(=O)C(C)NC(=O)OCc1ccccc1)C(=O)NC(C(N)=O)C(C)C` (some centres undefined), for which the inhibition constant (Ki) in experiment [1] is 3.9 nM.

In experiment [1], `CC(C)C(NC(=O)[C@H](C)C[C@H](O)C(Cc1ccccc1)NC(=O)OC(C)(C)C)C(N)=O` (some centres undefined) had a Ki of 260 nM.

For the compound `CC(C)C[C@H](NC(=O)[C@@H](NC(=O)OC(C)(C)C)C(N)=O)C(O)CC(C)C(=O)N[C@H](C(=O)NCc1ccccc1)C(C)C` (some centres undefined), affinity on Beta-secretase 1 was put at a Ki of 3130 nM.

For `CC(C)C[C@H](C[C@H](O)C(Cc1ccccc1)NC(=O)OC(C)(C)C)C(=O)NC(C(N)=O)C(C)C` (some centres undefined), the affinity in experiment [1] corresponds to a Ki of 23 nM.

`CC(C)C[C@H](NC(=O)C(NC(=O)[C@@H](NC(=O)OC(C)(C)C)C(C)C)C(N)=O)C(O)CC(C)C(=O)N[C@H](C(=O)NCc1ccccc1)C(C)C` (some centres undefined): on Beta-secretase 1, the Ki came out at 5.9 nM.

Consider `CC(C)C[C@H](NC(=O)C(CS(C)(=O)=O)NC(=O)[C@@H](NC(=O)OC(C)(C)C)C(C)C)C(O)CC(C)C(=O)N[C@H](C(=O)NCc1ccccc1)C(C)C` (some centres undefined), for which the Ki at Beta-secretase 1 came out at 9.4 nM.

As to `CC(C)C[C@H](NC(=O)C(NC(=O)[C@@H](NC(=O)OC(C)(C)C)C(C)C)C(N)=O)C(O)CC(C)C(=O)N[C@@H](C)C(=O)NCc1ccccc1` (some centres undefined), on Beta-secretase 1, the affinity corresponds to a Ki of 61.4 nM.

With `CC(C)C(NC(=O)CC[C@H](O)C(Cc1ccccc1)NC(=O)OC(C)(C)C)C(N)=O` (some centres undefined), the affinity in experiment [1], expressed as Ki, was 6500 nM.

As to `COC(=O)C(NC(=O)C(NC(=O)CC[C@H](O)C(Cc1ccccc1)NC(=O)C(C)NC(=O)OCc1ccccc1)C(C)C)C(C)C` (some centres undefined), the inhibition constant (Ki) in experiment [1] came out at 118 nM.

Turning to `CSCCC(NC(=O)OC(C)(C)C)C(=O)N[C@@H](CC(C)C)C(O)CC(C)C(=O)N[C@H](C(=O)NCc1ccccc1)C(C)C` (some centres undefined), the inhibition constant Ki on Beta-secretase 1 was 58.8 nM.

Consider `CC(C)C[C@H](NC(=O)[C@H](CS(C)(=O)=O)NC(=O)OC(C)(C)C)C(O)CC(C)C(=O)N[C@H](C(=O)NCc1ccccc1)C(C)C` (some centres undefined), for which, on Beta-secretase 1, affinity was put at a Ki of 1130 nM.

For `CCC[C@H](C[C@H](O)C(Cc1ccccc1)NC(=O)C(C)NC(=O)OCc1ccccc1)C(=O)NC(C(=O)NC(C(=O)OC)C(C)C)C(C)C` (some centres undefined), affinity in experiment [1] was put at a Ki of 0.6 nM.

On Beta-secretase 1, `CC(C)C[C@H](NC(=O)[C@@H](N)CCC(=O)O)C(=O)N[C@@H](CC(=O)O)C(=O)N[C@@H](CC(C)C)C(=O)C(O)CN[C@@H](C)C(=O)N[C@H](C(=O)N[C@@H](CCC(=O)O)C(=O)N[C@@H](Cc1ccccc1)C(=O)O)C(C)C` (some centres undefined) had a Ki of 0.3 nM.

Turning to `CSCC(NC(=O)[C@@H](NC(=O)OC(C)(C)C)C(C)C)C(=O)N[C@@H](CC(C)C)C(O)CC(C)C(=O)N[C@H](C(=O)NCc1ccccc1)C(C)C` (some centres undefined), the affinity at Beta-secretase 1, expressed as Ki, was 50.1 nM.

With `CC(C)C(NC(=O)[C@H](Cc1ccccc1)C[C@H](O)C(Cc1ccccc1)NC(=O)OC(C)(C)C)C(N)=O` (some centres undefined), in experiment [1], affinity was put at a Ki of 1.4 nM.

Take `CCC[C@H](C[C@H](O)C(Cc1ccccc1)NC(=O)C(C)NC(=O)OCc1ccccc1)C(=O)NC(C(N)=O)C(C)C` (some centres undefined): affinity in experiment [1] was put at a Ki of 20 nM.

As for `COC(=O)[C@@H](NC(=O)[C@@H](NC(=O)CC[C@H](O)[C@H](Cc1ccccc1)NC(=O)[C@H](C)NC(=O)[C@H](C)NC(=O)OCc1ccccc1)C(C)C)C(C)C` (Cbz-AA[Hexanoyl(5S-NH,4S-OH,6-Ph)]VV-OMe), the Ki in experiment [1] was 44 nM.

With `CCC[C@H](C[C@H](O)[C@H](Cc1ccccc1)NC(=O)[C@H](C)NC(=O)[C@H](C)NC(=O)OCc1ccccc1)C(=O)N[C@H](C(=O)N[C@H](C(=O)OC)C(C)C)C(C)C` (Cbz-AA[X1]VV-OMe), in experiment [1], the Ki was found to be 0.4 nM.

Take `COC(=O)[C@@H](NC(=O)[C@@H](NC(=O)[C@H](C)C[C@H](O)[C@H](Cc1ccccc1)NC(=O)[C@H](C)NC(=O)[C@H](C)NC(=O)OCc1ccccc1)C(C)C)C(C)C` (Cbz-AA[X2]VV-OMe): in experiment [1], the Ki came out at 0.6 nM.

In experiment [1], `COC(=O)[C@@H](NC(=O)[C@@H](NC(=O)[C@H](Cc1ccccc1)C[C@H](O)[C@H](Cc1ccccc1)NC(=O)[C@H](C)NC(=O)[C@H](C)NC(=O)OCc1ccccc1)C(C)C)C(C)C` (Cbz-AA[X3]VV-OMe) returned an inhibition constant Ki of 0.4 nM.

As for `COC(=O)[C@@H](NC(=O)[C@@H](NC(=O)[C@H](CC(C)C)C[C@H](O)[C@H](Cc1ccccc1)NC(=O)[C@H](C)NC(=O)[C@H](C)NC(=O)OCc1ccccc1)C(C)C)C(C)C` (Cbz-AA[X4]VV-OMe), the Ki in experiment [1] came to 0.8 nM.

`COC(=O)[C@@H](NC(=O)[C@@H](NC(=O)CC[C@H](O)[C@H](Cc1ccccc1)NC(=O)[C@H](C)NC(=O)[C@H](C)N)C(C)C)C(C)C` (H-AA[Hexanoyl(5S-NH,4S-OH,6-Ph)]VV-OMe) showed an inhibitory constant (Ki) in experiment [1] of 4 nM.

For the compound `CCC[C@H](C[C@H](O)[C@H](Cc1ccccc1)NC(=O)[C@H](C)NC(=O)[C@H](C)N)C(=O)N[C@H](C(=O)N[C@H](C(=O)OC)C(C)C)C(C)C` (H-AA[X1]VV-OMe), the Ki in experiment [1] was 1.2 nM.

In turn, `COC(=O)[C@@H](NC(=O)[C@@H](NC(=O)[C@H](C)C[C@H](O)[C@H](Cc1ccccc1)NC(=O)[C@H](C)NC(=O)[C@H](C)N)C(C)C)C(C)C` (H-AA[X2]VV-OMe) came in with a Ki in experiment [1] of 3 nM.

On to `COC(=O)[C@@H](NC(=O)[C@@H](NC(=O)[C@H](CC(C)C)C[C@H](O)[C@H](Cc1ccccc1)NC(=O)[C@H](C)NC(=O)[C@H](C)N)C(C)C)C(C)C` (H-AA[X4]VV-OMe), for which the inhibition constant (Ki) in experiment [1] was determined as 0.6 nM.
